For 1 cell line, relative viability results are on record in the supplement of paper PMC10307832.

What all share (test): relative viability (nuclei count vs DMSO), 5 days (fraction); higher = more cells survive
Compound in assay [1]: c1ccc2c(CCNc3ccc(Nc4ccncc4)cc3)c[nH]c2c1 [Serdemetan] + Nc1ncn([C@H]2C[C@H](O)[C@@H](CO)O2)c(=O)n1 [Decitabine] (partner 2 µM)
Summed up:
(§1)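 Each reported value is a median over duplicate plates. It expresses relative viability: treated-well nuclei count divided by vehicle-well nuclei count. Lung cancer cell lines in 1536-well plates were dosed by pin tool a day after seeding, alone with one drug or with a fixed anchor-drug dose plus five library-drug doses (not always all listed) in √10 steps, and nuclei were counted after 5 days.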

Compound in assay [2]: C1CC(C2=C(C1)C3=C(N2)C=CC(=C3)Cl)C(=O)N [Selisistat] + CS(=O)(=O)CCNCc1ccc(-c2ccc3ncnc(Nc4ccc(OCc5cccc(F)c5)c(Cl)c4)c3c2)o1 [Lapatinib] (partner 2 µM)
Summed up:
as §1

Compound in assay [3]: C1CC(C2=C(C1)C3=C(N2)C=CC(=C3)Cl)C(=O)N [Selisistat] + C[C@]1(O)C[C@@H](c2nc(-c3ccc4ccc(-c5ccccc5)nc4c3)c3c(N)nccn32)C1 [Linsitinib] (partner 1 µM)
The essentials: as §1

Compound in assay [4]: c1ccc2c(CCNc3ccc(Nc4ccncc4)cc3)c[nH]c2c1 [Serdemetan] + Cc1cc(Nc2cc(N3CCN(C)CC3)nc(Sc3ccc(NC(=O)C4CC4)cc3)n2)n[nH]1 [Tozasertib] (partner 0.1 µM)
Summed up:
as §1

Consider UMC-11, for which the relative viability stood at 0.564 in assay [1] (first compound 0.04 µM); 0.387 in assay [1] (first compound 0.1265 µM); 0.685 in assay [1] (first compound 0.4 µM); 0.649 in assay [1] (first compound 1.265 µM); 0.532 in assay [1] (first compound 4 µM); 0.921 in assay [2] (first compound 0.4 µM). For the same cell line, the relative viability in assay [2] (first compound 1.265 µM) amounted to 0.999; in assay [2] (first compound 4 µM), 0.893; in assay [2] (first compound 12.65 µM), 0.94; in assay [2] (first compound 40 µM), 1.06; in assay [3] (first compound 0.4 µM) it was 0.962; in assay [3] (first compound 1.265 µM) it was 0.935. Moreover, the relative viability was determined as 1.06 in assay [3] (first compound 4 µM); 0.948 in assay [3] (first compound 12.65 µM); 1.03 in assay [3] (first compound 40 µM); 0.224 in assay [4] (first compound 0.04 µM); 0.199 in assay [4] (first compound 0.1265 µM); 0.208 in assay [4] (first compound 0.4 µM). Further, the relative viability in assay [4] (first compound 4 µM) turned out to be 0.233.
